The record followed here is ChEMBL document CHEMBL3430912, “GSK Tres Cantos Anti-Kinetoplastid Screening (TCAKS) Data”.

Data set [1] relates to Trypanosoma brucei brucei. The experiment in a line: GSK_TCAKS: pIC50 Trypanosoma brucei viability assay using fluorescence intensity. Assay plates (1536-well) were prepared by dispensing 25nL of compound solution per well using an Echo acoustic dispenser (Labcyte). The format is functional, organism-based. The settings on record: Lister 427, 2 h.
Data set [2] relates to Leishmania donovani. Description: GSK_TCAKS: pIC50 Leishmania donovani viability assay using fluorescence intensity. Assay plates (1536-well) were prepared by adding 30nL per well of compound. For single shot assay, the final compound concentration was 5uM. […] Briefly, eGFP LdBOB axenic amastigotes were harvested, fixed and counted in a CASY cell counter (Roche-Applied Science). A final concentration of 1.5 * 10^5 cells per well were prepared in amastigote media containing 500 U/mL penicillin/streptomycin (Invitrogen) and 6uL was dispensed to each experimental well using a Multidrop Combi dispenser (Thermo Scientific). 6uL of assay media was dispensed to control columns used as reference for 100% compound response. Following incubation for 72 h at 37C, 5% CO2, 2 uL of resazurin was added to each well at a final concentration of 0.5 mM in phosphate buffered saline (PBS) with IGEPAL (Sigma-Aldrich), 0.05% (v/v). The format is functional, organism-based.

The test system of data set [3] is Trypanosoma cruzi. The experiment in a line: (§1) GSK_TCAKS: pIC50 Trypanosoma cruzi Imaging: Infected Cells. […] Cells were then washed once with PBS before infection. T. cruzi trypomastigotes, collected at days 5 to 8 after infection from LLC-MK2 parasite infected cultures, were allowed to swim out for 4h at 37C from a centrifuged pellet (2,500 rpm/10 min/room temperature). Trypomastigotes were then collected and counted in a CASY Cell Counter. Trypomastigotes, in supplemented DMEM, were added to H9c2 cultures in a multiplicity of infection of 1 and incubated for 18 h. Cells were washed once with PBS before incubation of the infected H9c2 monolayer with trypsin (Life-Technologies) to detach cells from the flask. Cells were counted in a CASY Cell Counter using a 150 um capillary and their density set at 5 * 10^4 cells per mL in supplemented assay DMEM. Infected H9c2 were dispensed into 384-well poly-lysine coated assay plates at 50uL per well using a Multidrop Combi dispenser. After seeding them, the plates were incubated at 37C, 5% CO2 for 72h. Cultures were then fixed and stained by addition of 50 uL of a solution containing 8% formaldehyde and 4 uM DRAQ5 DNA dye (BioStatus, UK) per well. […] Five images were collected per well for reliable statistical analysis. Automated image analysis was performed with a script developed on Acapella High Content Imaging and Analysis Software (PerkinElmer). Output: percentage of infected cells per well as a second infection marker. The format is functional, organism-based, Rattus norvegicus. The settings on record: H9c2, 4 h.

Data set [4] can be described thus: GSK_TCAKS: pIC50 HepG2 human cell line viability assay using luminiscence. […] Seeding density was checked to ensure that new mono-layers were not more than 50% confluent at the time of harvesting. Cell suspension was added to 500 mL of the same medium at a final density of 1.2 * 10^5 cells/mL. This cell suspension was dispensed (25 uL, 3000 cells per well) into 384-well clear-bottom plates using a Multidrop Combi dispenser. Prior to addition of the cell suspension, the screening compounds (250 nL) were pre-dispensed into the plates with an Echo liquid handler. Plates were incubated for 48 h at 37C, 5% CO2. After incubation, plates equilibrated at room temperature for 30 min before proceeding to develop the luminescent signal. The signal developer, CellTiter-Glo Reagent, was allowed to equilibrate at room temperature for 30 min and added to the plates (25uL per well) using a Multidrop Combi dispenser. Plates were left for 10 min at room temperature for stabilization and then read using a ViewLux. The class given is toxicity, cell-based.

The test system of data set [5] is Trypanosoma cruzi. The experiment in a line: GSK_TCAKS: pIC50 Trypanosoma cruzi viability assay using beta-GAL activity. This assay was run at single shot at 5uM compound concentration per well. The biological reagents consisted of NIH-3T3 host cells and trypomastigotes parasitic cells; both cell types were set to a 3.3 * 10^5 cells/mL dilution in assay DMEM by means of a CASY cell counter device using a 60um capillary. 6 uL of the mixture were dispensed per well (about 1 * 10^3 host-cells and 1 * 10^3 parasites) with a Multidrop Combi dispenser. […] In all wells, the percentage of DMSO never exceeded 0.5%. Plates incubated for four days at 37C, 5% CO2. The substrate used for the assay fluorescence intensity (FLINT) readout was resorufin-beta-D-galactopiranoside (Sigma-Aldrich) at 5uM per well. It was diluted in PBS supplemented with the soft detergent Igepal (Fluka). The class given is functional, organism-based, Mus musculus. The settings on record: Tulahuen, NIH3T3.

Data set [6] deals with Sterol 14-alpha demethylase (Trypanosoma cruzi (strain CL Brener), UniProt Q7Z1V1). Description: GSK_TCAKS: pIC50 CYP51 from Trypanosoma cruzi. The class given is functional.
Data set [7] relates to Trypanosoma brucei brucei. The experiment in a line: GSK_TCAKS: pIC50 Trypanosoma brucei viability assay using luminiscence. Assay plates (1536-well) were prepared. T. brucei cultures were harvested and counted in a CASY cell counter. A parasite suspension was prepared at a final concentration of 5 * 10^4 cells/mL in complete HMI9 medium and 6uL was dispensed to all wells containing compounds using a Multidrop Combi dispenser. 6uL of HMI9 media with 0.4% DMSO were dispensed to control columns. Plates were incubated for 24 h at 37C, 5% CO2 then tempered for 10 min at room temperature. ATP content was quantified by adding 4 uL of CellTiter-Glo Reagent (Promega) according to the manufacturer's instructions. Luminescence was measured using a ViewLux. Particulars: Lister 427, CASY. The class given is functional, organism-based.

Data set [8] relates to Trypanosoma cruzi. The experiment in a line: GSK_TCAKS: pIC50 Trypanosoma cruzi Imaging: Amastigotes/Cell. […] Cells were then washed once with PBS before infection. T. cruzi trypomastigotes, collected at days 5 to 8 after infection from LLC-MK2 parasite infected cultures, were allowed to swim out for 4h at 37C from a centrifuged pellet (2,500 rpm/10 min/room temperature). Trypomastigotes were then collected and counted in a CASY Cell Counter. Trypomastigotes, in supplemented DMEM, were added to H9c2 cultures in a multiplicity of infection of 1 and incubated for 18 h. Cells were washed once with PBS before incubation of the infected H9c2 monolayer with trypsin (Life-Technologies) to detach cells from the flask. Cells were counted in a CASY Cell Counter using a 150 um capillary and their density set at 5 * 10^4 cells per mL in supplemented assay DMEM. Infected H9c2 were dispensed into 384-well poly-lysine coated assay plates at 50uL per well using a Multidrop Combi dispenser. After seeding them, the plates were incubated at 37C, 5% CO2 for 72h. Cultures were then fixed and stained by addition of 50 uL of a solution containing 8% formaldehyde and 4 uM DRAQ5 DNA dye (BioStatus, UK) per well. […] Five images were collected per well for reliable statistical analysis. Automated image analysis was performed with a script developed on Acapella High Content Imaging and Analysis Software (PerkinElmer). Output: number of amastigotes per cell as infection level measurement. The settings on record: H9c2, 4 h. The class given is functional, organism-based, Rattus norvegicus.

For data set [9], the system named is Leishmania donovani. Description: GSK_TCAKS: pIC50 Leishmania donovani Imaging: Infected Macrophages. Assay plates (384-well) were prepared by adding 250nL of compound to each well. For single shot assay, the final compound concentration was 5 uM. […] Automated image analysis was performed with a script developed on Acapella High Content Imaging and Analysis Software (PerkinElmer). Output: Percent of infected macrophage cells were reported for each well. The class given is functional, organism-based, Homo sapiens. The settings on record: THP-1.

Data set [10] deals with Trypanosoma cruzi. The data set is described as §1, with “H2C9” for “Trypanosoma cruzi”, “H9c2 Host Cardiomyocytes.” for “Infected Cells.”, “Number” for “percentage”, “H9c2 Host Cardiomyocytes nuclei to determine drug-related cytotoxicity.” for “infected cells per well as a second infection marker.”. The format is functional, organism-based, Rattus norvegicus. The settings on record: H9c2, 4 h.

Data set [11] deals with Leishmania donovani. The experiment in a line: GSK_TCAKS: pIC50 Leishmania donovani Imaging: Amastigotes/Macrophages. Assay plates (384-well) were prepared by adding 250nL of compound to each well. For single shot assay, the final compound concentration was 5 uM. […] Automated image analysis was performed with a script developed on Acapella High Content Imaging and Analysis Software (PerkinElmer). Output: Average number of amastigotes per macrophage cell were reported for each well. The class given is functional, organism-based, Homo sapiens. The settings on record: THP-1.

Data set [12] deals with Leishmania donovani. Description: GSK_TCAKS: pIC50 Leishmania donovani Imaging: THP-1 Host Macrophages. Assay plates (384-well) were prepared by adding 250nL of compound to each well. For single shot assay, the final compound concentration was 5 uM. […] Automated image analysis was performed with a script developed on Acapella High Content Imaging and Analysis Software (PerkinElmer). Output: THP-1 cell count were reported for each well. The class given is functional, organism-based, Homo sapiens.

A value given as a limit tells only on which side of the number the result lay.

Chain of Sterol 14-alpha demethylase (Q7Z1V1 whole entry): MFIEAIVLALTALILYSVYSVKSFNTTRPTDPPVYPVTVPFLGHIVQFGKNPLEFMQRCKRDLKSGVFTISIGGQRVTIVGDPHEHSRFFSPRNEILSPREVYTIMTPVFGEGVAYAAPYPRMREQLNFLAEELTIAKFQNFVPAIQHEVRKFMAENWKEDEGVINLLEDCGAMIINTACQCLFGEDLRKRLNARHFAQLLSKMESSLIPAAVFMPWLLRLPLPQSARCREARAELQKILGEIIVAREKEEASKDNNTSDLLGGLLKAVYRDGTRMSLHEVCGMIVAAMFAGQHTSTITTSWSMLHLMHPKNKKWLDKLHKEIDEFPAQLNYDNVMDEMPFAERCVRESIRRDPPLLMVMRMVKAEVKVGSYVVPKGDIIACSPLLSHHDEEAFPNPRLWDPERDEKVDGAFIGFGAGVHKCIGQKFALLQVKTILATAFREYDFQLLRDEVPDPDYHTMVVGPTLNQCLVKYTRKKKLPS

In the case of `CN1C(=O)c2ccccc2Sc2ccc(NC(=O)NCc3ccco3)cc21`, the IC50 in [1] is 398 nM; in the data set on Leishmania donovani [2] it was greater than 50100 nM; in the data set on Trypanosoma cruzi [3] it was 12600 nM; in the data set with Trypanosoma cruzi [5], 10000 nM; in [6] it was 31600 nM; in data set [7] it was 501 nM. The IC50 was 6310 nM in the data set on Trypanosoma cruzi [8]; greater than 50100 nM in the data set with Leishmania donovani [9]; 25100 nM in the data set with Trypanosoma cruzi [10]; 25100 nM with Leishmania donovani [11]; greater than 50100 nM in the data set with Leishmania donovani [12]. The IC50 at 48 h in [4] was greater than 100000 nM.
As for `COc1ccc2ncc(Cl)c(CCN3CC[C@@H](NCc4cc5c(cn4)OCS5)[C@H](O)C3)c2n1`, the IC50 was 316 nM in [1]; 10000 nM in the data set with Leishmania donovani [2]; 79.4 nM in the data set on Trypanosoma cruzi [3]; 126 nM in the data set on Trypanosoma cruzi [5]; 1000 nM in data set [6]; 398 nM in data set [7]. Besides, the IC50 is 63.1 nM in the data set on Trypanosoma cruzi [8]; 12600 nM in the data set with Leishmania donovani [9]; 25100 nM in the data set on Trypanosoma cruzi [10]; 7940 nM in the data set with Leishmania donovani [11]; 25100 nM in the data set with Leishmania donovani [12]. This compound also gave a concentration for half-maximal inhibition (IC50) at 48 h in [4] of 50100 nM.
For `Nc1nc(-c2ccccn2)nc(N)c1Cc1c(F)cccc1Cl`, the IC50 is 2510 nM in [1]; 2510 nM with Leishmania donovani [2]; 2000 nM in the data set on Trypanosoma cruzi [3]; 1580 nM in the data set on Trypanosoma cruzi [5]; greater than 100000 nM in [6]; 2000 nM in data set [7]. Further, the IC50 in the data set with Trypanosoma cruzi [8] is 1580 nM; with Leishmania donovani [9], 1260 nM; in the data set on Trypanosoma cruzi [10] it was 1260 nM; in the data set on Leishmania donovani [11] it was 1000 nM; in the data set on Leishmania donovani [12], 31600 nM. In addition, half-maximal inhibition in data set [4] (IC50 at 48 h) was put at 20000 nM.
`COc1ncc(-c2ccc3nccc(-c4ccncc4)c3c2)cc1NS(=O)(=O)C1CC1`: the IC50 in data set [1] was 200 nM; with Leishmania donovani [2] it was 1260 nM; with Trypanosoma cruzi [3] it was 2510 nM; with Trypanosoma cruzi [5] it was 316 nM; in data set [6] it was 7940 nM; in [7], 398 nM. Besides, the IC50 was 2000 nM in the data set on Trypanosoma cruzi [8]; 1260 nM in the data set on Leishmania donovani [9]; 794 nM with Trypanosoma cruzi [10]; 316 nM in the data set on Leishmania donovani [11]; 1000 nM in the data set on Leishmania donovani [12]. The compound further had an IC50 at 48 h in data set [4] greater than 100000 nM.
Regarding `NS(=O)(=O)c1ccc(CNC(=O)c2ccc([N+](=O)[O-])s2)cc1`, the half-inhibitory concentration (IC50) in data set [1] was 251 nM; with Leishmania donovani [2], 31600 nM; with Trypanosoma cruzi [3] it was 5010 nM; with Trypanosoma cruzi [5] it was 1000 nM; in [6] it was 39800 nM; in [7] it was 251 nM. For the same compound, the IC50 in the data set on Trypanosoma cruzi [8] was 794 nM; in the data set on Leishmania donovani [9], 25100 nM; with Trypanosoma cruzi [10], 20000 nM; in the data set on Leishmania donovani [11] it was 12600 nM; in the data set with Leishmania donovani [12], 39800 nM. This compound also showed an IC50 at 48 h in data set [4] of 15800 nM.
